Experimental data: PubChem BioAssay AID1159557 (GlaxoSmithKline (GSK), 2015)
pIC50: −log10 of the molar value. The source made the active and inactive calls. How the calls were made is not given here.

Test system: Trypanosoma brucei growth inhibition
Test: T. brucei growth inhibition (AID 1159557);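 further: parasites exposed to compound for 48 h before the resazurin readout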

## OC1CCC(Nc2nccc(-c3sc(C4CCOCC4)nc3-c3ccc(F)c(F)c3)n2)CC1 (stereo not given)
  pIC50: 5.70

## Cc1cc(C)n(-c2nc(NC(C)C)nc(NC(C)(C)C)n2)n1
  pIC50: 4.70

## O=C(Cc1ccc2c(c1)CCC2)Nc1n[nH]c(-c2ccccn2)n1
  pIC50: 4.70

## O=C(Nc1ccc(-c2nc3ccccc3c(=O)[nH]2)cc1)c1cccs1
  pIC50: 6.60

## CC(C)CC(=O)NC(c1cccs1)c1ccc2cccnc2c1O (stereo not given)
  pIC50: 6.20

## CCn1nccc1CN(C)C(=O)C=Cc1ccc(Cl)cc1
  pIC50: 4.49

## Cc1cc2nc(N3CC[C@H]3C(N)=O)nc(Nc3cc(C4CC4)[nH]n3)c2s1
  pIC50: 7.10

## COc1ccnc2[nH]cc(-c3cc(C(=O)N[C@H](CO)c4ccccc4)co3)c12
  pIC50: 8.30

## CC(C)c1cc(C(=O)N2CCCC(c3cc4ncccc4[nH]3)C2)on1 (stereo not given)
  IC50: > 40 µM (inactive)

## O=C1CCCCCC1(Cc1cnc[nH]1)c1ccc(Cl)cc1Cl (stereo not given)
  IC50: > 40 µM (inactive)

## CC(C)(C)C(=O)Nc1cc(C2CC2)nn1-c1nc2c(c(=O)[nH]1)CCCC2
  pIC50: 6.80

## CC(C)(C)Nc1nc(-c2ccccn2)nc2ccccc12
  pIC50: 5.20

## Cc1ccc(C)c(CN2C(=O)NC3(CCc4ccccc43)C2=O)c1 (stereo not given)
  pIC50: 6.30

## CCC(=O)N1N=C(c2ccc3c(c2)CCCC3)Sc2c1ncn2C(=O)CC
  pIC50: 4.80

## Cc1ccccc1CNC(=O)CN(Cc1ccccn1)Cc1ccccn1
  pIC50: 5.20

## NC(N)=Nc1nc(-c2ccc(NC(N)=NCCN3CCCC3)cc2)cs1
  pIC50: 7.40

## C[C@@H](Oc1cc(-n2cnc3cc(N)ccc32)sc1C(N)=O)c1ccccc1Cl
  pIC50: 6.60

## CN(Cc1cccnc1)Cc1ccc(N2CCN(C(=O)C3(c4ccc(Cl)cc4)CC3)CC2)nc1
  pIC50: 4.49

## CC1=C(C(=O)Nc2ccc(Cl)cc2)C(c2ccncc2)n2ncc(C(=O)Nc3ccccc3)c2N1 (stereo not given)
  pIC50: 5.49

## N#Cc1ccc(Br)cc1[N+](=O)[O-]
  pIC50: 6.80

## O=[N+]([O-])c1ccc(-c2nnn(-c3cccnc3)n2)o1
  pIC50: 6.49

## CCNc1cc(-c2ccccn2)nc(Nc2ccc(OC)cc2)n1
  pIC50: 4.89

## Cc1c(CNC(=O)c2ccc(Cn3cc(Cl)c([N+](=O)[O-])n3)cc2)cnn1C
  pIC50: 5.30

## COc1ccc(C(C)N(C)c2ncc3c(N)nc(N)nc3n2)cc1F (stereo not given)
  pIC50: 4.89

## O=C(c1ccc(OCCCc2cnc[nH]2)cc1)C1CC1
  pIC50: 5.00

## Cc1c(C(=O)NCCCCn2ccnc2)oc2c(C)cccc12
  pIC50: 4.70

## COCc1cc(Nc2ccccc2)nc(-c2ccccn2)n1
  IC50: > 40 µM (inactive)

## Cc1cc(N2CCc3ccccc3C2)nc(Nc2ccc(S(=O)(=O)N3CCOCC3)cc2)n1
  pIC50: 4.49

## O=C(Cc1ccccc1)Nc1[nH]nc2sc(C(=O)NC3CCCC3)cc12
  pIC50: 6.40

## c1cncc(CN(Cc2ccco2)Cc2cn[nH]c2-c2cccs2)c1
  pIC50: 4.60

## COc1cccc(C(=O)[C@H]2C[C@@H]2CN(Cc2ccccn2)Cc2ccccn2)c1
  pIC50: 4.80

## N#Cc1c(Oc2cccc(Cl)c2)cccc1[N+](=O)[O-]
  pIC50: 8.10

## CNc1cc(C)nc(C2CN(C(=O)c3n[nH]c4ccccc34)CCO2)c1 (stereo not given)
  pIC50: 4.70

## CN(C)S(=O)(=O)c1ccc(Cl)c(C(=O)Nc2nc(-c3ccccn3)cs2)c1
  pIC50: 6.30

## CS(=O)(=O)c1cccc(CNC(=O)c2cncc(N3CCN(c4ccc(F)cc4)CC3)c2)c1
  pIC50: 4.49

## CN(C)c1ncc(-c2cncn2CCOc2ccc(Cl)cc2)cn1
  IC50: > 40 µM (inactive)

## CCCc1nc2nc(N)nc(N)c2cc1CC
  pIC50: 4.70

## Cc1nn(-c2nc3ccccc3s2)c2c1C(c1ccc(OCC(N)=O)cc1)SCC(=O)N2 (stereo not given)
  pIC50: 7.70

## Cc1cc(N(C)C)nc(Nc2ccccc2C)n1
  pIC50: 4.49

## COc1ccc(CNc2nsc3ccccc23)cc1OC
  pIC50: 5.10

## CN(C)c1ccc(N)cc1CN(CC1CCCO1)S(C)(=O)=O (stereo not given)
  IC50: > 40 µM (inactive)

## COc1cccc(CN(C)Cc2nc(N)c3c(C)c(C)sc3n2)c1
  pIC50: 5.30

## CC(c1ccc2c(c1)CCCC2)N(C)c1ncc2c(N)nc(N)nc2n1 (stereo not given)
  pIC50: 4.80

## Cc1nc(N2CCC(C(=O)N3CCC(O)(c4cccnc4)CC3)CC2)nc2ccc(C(C)C)cc12
  pIC50: 4.70

## O=C(Nc1ccc(C(F)(F)F)cc1)NC1(C(=O)NCc2ccco2)CCCCC1
  pIC50: 6.10

## Cn1nc(C(=O)N2CCc3ccccc32)c2c1CCS(=O)(=O)C2
  pIC50: 5.40

## CCn1c(NC(=O)Cc2ccc(F)cc2)nc2ccccc21
  pIC50: 5.49

## COc1ccc2ncc(=O)n(CCN3CCC(NCc4ccc(-c5cccs5)cc4)CC3)c2n1
  pIC50: 5.49

## Cc1ccc2c(c1)-c1onc(C(=O)N3CCCCC3c3cccnc3)c1CO2 (stereo not given)
  pIC50: 4.40

## c1ccc(CNc2cccc3ccncc23)cc1
  pIC50: 4.60

## CC(C)(C)CC(=O)NCCc1csc(-c2ccc(F)cc2)n1
  pIC50: 6.20

## CCOC(=O)c1cn[nH]c1S(=O)(=O)N1CCC1c1ccccc1 (stereo not given)
  pIC50: 6.20

## O=C(NCCNc1noc(-c2ccc([N+](=O)[O-])cc2)n1)c1ccc(Cl)cc1
  pIC50: 5.49

## O=C(NCc1ccc(Cl)cc1)C1CN(C(=O)c2ccc(F)cc2)CCS1 (stereo not given)
  pIC50: 6.10

## Cc1[nH]n2c(=O)c3c(nc2c1-c1ccc(Br)cc1)CCCC3
  pIC50: 6.40

## COc1cc(F)c2ncc(F)c(CCN3CC[C@H](NCc4cc5c(cn4)OCS5)[C@@H](O)C3)c2c1
  pIC50: 6.60

## Cc1[nH]nc(C(F)(F)F)c1NC(=O)CCn1cc(Cl)c([N+](=O)[O-])n1
  pIC50: 6.30

## Cc1ccc(Nc2nc(-c3ccccn3)cc(N3CCCC(O)C3)n2)cc1 (stereo not given)
  pIC50: 5.49

## CC(C)CC(=O)Nc1cc(C2CC2)nn1-c1nc2c(c(=O)[nH]1)CCCC2
  pIC50: 6.70

## CCN(CC)c1nc(N(C)C)nc2c1CN(Cc1ccccc1)CC2
  pIC50: 4.70

## OCCCNc1nc(Nc2ccncc2)nc2ccccc12
  pIC50: 4.60

## CCCCNc1nccc(-c2c(-c3ccc(F)cc3)nn3c(N4CCOCC4)cccc23)n1
  pIC50: 5.00

## COc1ccc(-c2ccc3nnc(-c4ccc(O)c(OC)c4)n3c2)cn1
  pIC50: 5.70

## COc1ccccc1CNc1cc(C2CC2)nc(-c2nccn2C)n1
  pIC50: 5.60

## Cc1cccnc1NC(=O)c1cccc(OCc2c(C)noc2C)c1
  pIC50: 6.40

## CCCC(=O)N(Cc1ccccn1)c1nc2ccccc2s1
  pIC50: 4.70

## O=C(NCc1nnc2n1CCCCC2)c1ccc(-c2ccc(F)cc2)o1
  pIC50: 6.89

## CN(C)S(=O)(=O)c1cccc(C(=O)Nc2nc(-c3ccccn3)cs2)c1
  pIC50: 6.30

## CC(CNS(=O)(=O)c1ccc(OC(F)F)cc1)c1ccc(NC(=O)c2ccncc2)cc1 (stereo not given)
  pIC50: 5.10

## COc1ccc(C(=O)[C@H]2C[C@@H]2CN(Cc2ccccn2)Cc2ccccn2)cc1
  pIC50: 5.20

## Clc1ccc(OCCN2CCCCC2c2cccnc2)c(Cl)c1 (stereo not given)
  pIC50: 4.49

## C=CCN(Cc1cccs1)C(=O)CSc1nnc(-c2ccc3c(c2)OCO3)o1
  pIC50: 4.70

## CCC(CC)C(=O)Nc1cccc(C(=O)Nc2nnc(C3CCCCC3)s2)c1
  pIC50: 6.60

## O=C(Nc1ccc(S(=O)(=O)N2CCCC2)cc1)c1ccc([N+](=O)[O-])s1
  pIC50: 6.80

## COc1ccc(C2=NCC(CSc3nnc(-c4ccc5c(c4)OCO5)o3)S2)cc1 (stereo not given)
  pIC50: 5.00

## COc1ccccc1C1CC(c2ccc(NS(C)(=O)=O)cc2)=NN1C(=O)c1cccs1 (stereo not given)
  pIC50: 4.80

## CS(=O)(=O)c1ccc(Nc2nccc(Nc3n[nH]c4ccc(F)cc34)n2)c(F)c1
  pIC50: 6.30

## Cc1cc(C)n(-c2nc(NC(C)(C)C)nc(N3CCOCC3)n2)n1
  pIC50: 4.89

## CN1CCC(N(C)c2nccc(N3CCN(C(=O)c4cccc(-c5cccnc5)c4)CC3)n2)CC1
  pIC50: 6.10

## N#Cc1cccc(Cc2cc(Nc3cc(C4CC4)[nH]n3)nc(N3CC[C@H]3C(N)=O)n2)c1
  pIC50: 7.40

## CNc1nc(C)nc(N2CCc3cc(C(=O)NCc4ccc(-c5ccn[nH]5)cc4Cl)ccc32)n1
  pIC50: 4.89

## CN(C)CCOc1ccc(N2CCN(S(=O)(=O)c3ccc(Cl)cc3)CC2)cc1
  pIC50: 4.70

## O=C(Nc1ccc(C(=O)N2CCCC2c2ccc3c(c2)OCCCO3)cc1)c1ccco1 (stereo not given)
  pIC50: 6.70

## Cc1nc2c(-c3n[nH]c(-c4ccccc4N)n3)cccn2c1C
  pIC50: 6.00

## Cc1ccccc1CNc1cc(C2CC2)nc(-c2nccn2C)n1
  pIC50: 5.60

## Cc1c(C#N)c([N+](=O)[O-])nn1Cc1cccc(Cl)c1Cl
  pIC50: 4.80

## COc1ccc(C(=O)N2CCC(Nc3cccnc3)C2)c(OC)n1 (stereo not given)
  IC50: > 40 µM (inactive)

## Cc1cc(NC(=O)C2CCCCC2)n(-c2nc3c(c(=O)[nH]2)CCC3)n1
  pIC50: 6.89

## COc1ccc2ncc(F)c(CCN3CC[C@@H](NC(=O)c4cc5c(s4)CCC5)[C@@H](O)C3)c2n1
  pIC50: 7.00

## O=C(Nc1nc2ccccc2[nH]1)c1c(O)c2cccc3c2n(c1=O)CC3
  pIC50: 4.80

## CCN(CC)S(=O)(=O)c1ccc(C(=O)Nc2cc(C)nn2-c2nc(C)c(C)c(=O)[nH]2)cc1
  pIC50: 6.49

## COc1ccc(CN2CCCCC2c2nc(-c3cccnc3)no2)cc1 (stereo not given)
  IC50: > 40 µM (inactive)

## O=c1[nH]cnc2c([C@@H]3O[C@H](CO)[C@@H](O)[C@H]3O)[nH]nc12
  pIC50: 8.49

## CC(C)(C)Nc1nc(Nc2ccc3c(c2)CS(=O)(=O)C3)nc2[nH]ccc12
  pIC50: 6.10

## Fc1ccccc1N1C[C@H]2CCN(c3cccnc3)C[C@H]2C1
  pIC50: 4.49

## CCN(Cc1cccs1)C(=O)CSc1nnc(-c2ccc3c(c2)OCO3)o1
  pIC50: 4.60

## O=c1cc(NCCCNCc2c[nH]c3ccc(Br)cc23)[nH]c2ccccc12
  pIC50: 6.00

## O=C(Nc1nc2cc(Cl)ccc2o1)c1cccc(Cl)c1
  pIC50: 6.10

## c1ccc(-c2nc(NCc3ccco3)c3ccccc3n2)nc1
  IC50: > 40 µM (inactive)

## CN1CCCN(C(=O)c2ccc(N3CCCC3)cc2Cl)CC1
  IC50: > 40 µM (inactive)

## N#Cc1ccccc1S(=O)(=O)N1CCN(C(=O)CNC(=O)c2ccc3c(c2)OCO3)CC1
  IC50: > 40 µM (inactive)

## c1ccc(CCNCc2cncc3nc(-c4cnccn4)n(C4CCCCC4)c23)cc1
  pIC50: 4.49

## COC(=O)c1ccc(-c2cnc3ccc(NCc4ccccn4)nn23)cc1
  pIC50: 6.20

## CNc1c(C(N)=O)c(-c2ccc3scnc3c2)nn1CC(F)(F)F
  pIC50: 4.49

## O=C(Cn1cnc([N+](=O)[O-])n1)Nc1ccc(Cl)cc1C(=O)c1ccccc1
  pIC50: 4.70

## O=C1CSC(c2cccnc2)N1c1ccc(Cl)cc1Cl (stereo not given)
  IC50: > 40 µM (inactive)

## Cc1cc(C#N)c([N+](=O)[O-])cc1Br
  pIC50: 6.10

## c1ccc(Nc2nc3ccccc3[nH]2)nc1
  pIC50: 4.80

## CNC(=O)Oc1ccc(C(=O)NCc2ccccc2)cc1OC(=O)NC
  pIC50: 6.89

## O=c1ccc2ccc(F)c3c2n1C[C@H]3CN1CCN(CC(O)c2cc3c(cn2)OCS3)CC1 (stereo not given in full)
  pIC50: 6.70
